# Test results from US5032597A, “Method of using phenylquinolinecarboxylic acids and derivatives for lymthoid leukemia treatment in a mammal” (priority 1987, dated 1991).
# Read-outs that look alike come from different tables or passages of the source.
# Tested on: L1210 leukemia
# Assay: Lymphoid Leukemia L1210, survival of tumored mice
# Type: in vivo, CD2F1 mice
# Details: for response vs control in vivo at 37.5 mg/kg: 37.5 mg/kg i.p.; for response vs control in vivo at 200 mg/kg: 200 mg/kg i.p.
# Experimental: The efficacy of the compounds of this invention against the transplanted mouse tumors was evaluated in test systems currently in use at the National Cancer Institute for the detection and assessment of anticancer activity. […] J. Cancer, 17, 129-142, (1981); Venditti, J. M., Seminars in Oncology, 8 (4) (1981); Goldin, A. and J. M. Venditti, in Recent Results in Cancer Research, 70, S. K. Carter and Y. Sakurai, Eds., Springer-Verlag, Berlin/Heidelberg, 1980].
# The animals used in this test were CD2 F1 mice, all males weighing a minimum of 18 g and all within a 4 g weight range at the start of the test. The test group consisted of six mice. The tumor was implanted in each of the test mice by the intraperitoneal injection of 0.1 ml of diluted ascitic fluid containing 10^5 cells drawn from a mouse with L1210 leukemia. The test compounds were suspended in hydroxypropylcellulose or saline with Tween® 80 surfactant or dissolved in saline and injected intraperitoneally, at various doses, once daily for nine consecutive days starting on day one relative to the day of tumor inoculation (day 0). The control mice received injections of saline or hydroxypropylcellulose vehicle only. The mice were weighed and survivors were recorded on a regular basis for 30 days. The median survival time and the ratio of the median survival time for the treated (T) and control (C) mice was calculated. […] Drug effectiveness was assessed on the basis of the survival time. Results were expressed as a percentage of the control survival time (Median Survival Time: T/C ×100%). The criterion for effectiveness was determined by: T/C×100≥125 percent.
# [1] = Mus musculus, L1210, ip, 720 h, 50 mg/kg i.p., read-out: L1210 Leukemia % T/C (median survival time)
# [2] = Mus musculus, L1210, ip, 720 h, nonoptimal Q1DX9 instead of Q3DX9, read-out: L1210 Leukemia % T/C (median survival time)
# [3] = Mus musculus, L1210, ip, 720 h, 75 mg/kg i.p., read-out: L1210 Leukemia % T/C (median survival time)
# [4] = Mus musculus, L1210, ip, 720 h, 25 mg/kg i.p., read-out: L1210 Leukemia % T/C (median survival time)
# [5] = Mus musculus, L1210, ip, 720 h, 100 mg/kg i.p., read-out: L1210 Leukemia % T/C (median survival time)
# [6] = Mus musculus, L1210, ip, 720 h, read-out: L1210 Leukemia % T/C (median survival time)
# [7] = Mus musculus, L1210, ip, 720 h, 50 mg/kg i.p., nonoptimal Q1DX9 instead of Q3DX9, read-out: L1210 Leukemia % T/C (median survival time)
# [8] = Mus musculus, L1210, ip, 720 h, 75 mg/kg i.p., nonoptimal Q1DX9 instead of Q3DX9, read-out: L1210 Leukemia % T/C (median survival time)
compound,measurement,setting,value
Cc1ccc2nc(-c3ccc(-c4ccccc4)cc3)c(C)c(C(=O)O)c2c1Cl [Example 166],response vs control in vivo at 50 mg/kg,[1],156%
Cc1c(-c2ccc(-c3ccccc3)cc2)nc2ccc(F)cc2c1C(=O)OCCN(C)C [Example 196],response vs control in vivo at 50 mg/kg,[1],205%
Cc1c(-c2ccc(-c3ccc(F)cc3F)cc2)nc2ccc(F)cc2c1C(=O)O [Example 74],response vs control in vivo at 50 mg/kg,[1],104%
Cc1c(-c2ccc(-c3ccccc3)cc2)nc2cc(Cl)c(F)cc2c1C(=O)O [Example 151],L1210 Leukemia % T/C (median survival time),75 mg/kg i.p.,144%
COc1c(-c2ccc(-c3ccccc3)cc2)nc2ccc(F)cc2c1C(=O)O [Example 127],L1210 Leukemia % T/C (median survival time),50 mg/kg i.p.,193%
Cc1c(-c2ccc(-c3ccc(F)cc3)cc2)nc2cc(Cl)c(F)cc2c1C(=O)O [Example 144],response vs control in vivo at 37.5 mg/kg,[2],123%
Cc1c(-c2ccc(-c3ccc(Cl)c(Cl)c3)cc2)nc2ccc(F)cc2c1C(=O)O [Example 36],response vs control in vivo at 75 mg/kg,[3],185%
Cc1c(-c2ccc([S+]([O-])c3ccccc3)cc2)nc2ccc(F)cc2c1C(=O)O (centres unmarked) [Example 34],response vs control in vivo at 400 mg/kg,"Mus musculus, L1210, ip, 720 h, 400 mg/kg i.p., read-out: L1210 Leukemia % T/C (median survival time)",170%
Cc1c(-c2ccc(Oc3ccccc3)cc2)nc2ccc(Cl)cc2c1C(=O)O [Example 110],response vs control in vivo at 25 mg/kg,[4],135%
Cc1c(-c2ccc(-c3ccc(Br)cc3)cc2)nc2ccc(Cl)cc2c1C(=O)O [Example 175],response vs control in vivo at 12.5 mg/kg,"Mus musculus, L1210, ip, 720 h, 12.5 mg/kg i.p., read-out: L1210 Leukemia % T/C (median survival time)",156%
Cc1ccc(-c2ccc(-c3nc4ccc(F)cc4c(C(=O)O)c3C)cc2)cc1 [Example 120],response vs control in vivo at 100 mg/kg,[5],132%
Cc1c(-c2ccc(Oc3ccc(F)cc3)cc2)nc2ccc(F)cc2c1C(=O)O [Example 35],L1210 Leukemia % T/C (median survival time),150 mg/kg i.p.,204%
Cc1c(-c2ccc(Oc3ccc(F)cc3)cc2)nc2ccc(F)cc2c1C(=O)O [Example 125],L1210 Leukemia % T/C (median survival time),150 mg/kg i.p.,150%
"CSc1ccc2nc(-c3ccc(-c4ccccc4)cc3)c(C)c(C(=O)O)c2c1 [Example 76, 2-(4-Biphenyl)-3-methyl-6-methylthio-4-quinoline carboxylic acid]",response vs control in vivo at 200 mg/kg,[6],179%
Cc1c(-c2ccc(-c3ccccc3)cc2)nc2ccc(I)cc2c1C(=O)O [Example 185],response vs control in vivo at 50 mg/kg,[1],175%
Cc1c(-c2ccc(-c3ccc(Br)cc3)cc2)nc2ccc(Cl)cc2c1C(=O)O [Example 117],response vs control in vivo at 25 mg/kg,[4],163%
Cc1c(-c2ccc(-c3ccccc3)cc2)nc2cccc(Cl)c2c1C(=O)O [Example 163],response vs control in vivo at 43.8 mg/kg,"Mus musculus, L1210, ip, 720 h, 43.8 mg/kg i.p., read-out: L1210 Leukemia % T/C (median survival time)",180%
Cc1c(-c2ccc(-c3ccccc3F)cc2)nc2ccc(F)cc2c1C(=O)OCCCN(C)C [Example 200],L1210 Leukemia % T/C (median survival time),25 mg/kg i.p.,140%
Cc1c(-c2ccc(Cc3ccccc3)cc2)nc2ccc(Cl)cc2c1C(=O)O [Example 22],response vs control in vivo at 100 mg/kg,[5],135%
Cc1c(-c2ccc(-c3ccccc3)cc2)nc2cc(Cl)c(F)cc2c1C(=O)O [Example 61],response vs control in vivo at 75 mg/kg,[3],160%
Cc1c(-c2ccc(-c3ccc(Br)cc3)cc2)nc2ccc(F)cc2c1C(=O)O [Example 183],response vs control in vivo at 22.5 mg/kg,"Mus musculus, L1210, ip, 720 h, 22.5 mg/kg i.p., read-out: L1210 Leukemia % T/C (median survival time)",208%
Cc1c(-c2ccc(-c3ccccc3)cc2)nc2ccc(Br)cc2c1C(=O)O [Example 142],response vs control in vivo at 37.5 mg/kg,[6],169%
CCc1c(-c2ccc(C3CCCCC3)cc2)nc2ccc(F)cc2c1C(=O)O [Example 100],response vs control in vivo at 50 mg/kg,[7],103%
Cc1c(-c2ccc(-c3ccccc3F)cc2)nc2ccc(F)cc2c1C(=O)OCCCN(C)C [Example 199],response vs control in vivo at 25 mg/kg,[4],153%
Cc1cc(-c2ccccc2)ccc1-c1nc2ccc(F)cc2c(C(=O)O)c1C [Example 68],response vs control in vivo at 100 mg/kg,[5],162%
COc1c(-c2ccc(-c3ccccc3)cc2)nc2ccc(F)cc2c1C(=O)O [Example 37],L1210 Leukemia % T/C (median survival time),50 mg/kg i.p.,155%
Cc1c(-c2ccc(-c3ccccc3)cc2)nc2ccc(I)cc2c1C(=O)O [Example 71],response vs control in vivo at 25 mg/kg,[4],163%
O=C(O)c1cc(-c2ccc(-c3ccccc3)cc2)nc2ccc(F)cc12 [Example 182],response vs control in vivo at 46 mg/kg,"Mus musculus, L1210, ip, 720 h, 46 mg/kg i.p., read-out: L1210 Leukemia % T/C (median survival time)",168%
Cc1cc(-c2ccccc2)ccc1-c1nc2ccc(F)cc2c(C(=O)O)c1C [Example 158],L1210 Leukemia % T/C (median survival time),100 mg/kg i.p.,148%
Cc1c(-c2ccc(-c3ccccc3)cc2)nc2ccc(C(F)(F)F)cc2c1C(=O)O [Example 146],response vs control in vivo at 37.5 mg/kg,[6],164%
Cc1c(-c2ccc(-c3ccccc3)cc2)nc2c(Br)cc(Br)cc2c1C(=O)O [Example 150],response vs control in vivo at 37.5 mg/kg,[2],105%
Cc1c(-c2ccc(-c3ccc(F)cc3)cc2)nc2ccc(Cl)cc2c1C(=O)O [Example 23],response vs control in vivo at 25 mg/kg,[4],159%
Cc1c(-c2ccc(-c3ccccc3)cc2)nc2cc(Cl)cc(Cl)c2c1C(=O)O [Example 165],response vs control in vivo at 50 mg/kg,[1],128%
O=C(O)c1cc(-c2ccc(Oc3ccc(F)cc3)cc2)nc2ccc(F)cc12 [Example 75],response vs control in vivo at 150 mg/kg,"Mus musculus, L1210, ip, 720 h, 150 mg/kg i.p., read-out: L1210 Leukemia % T/C (median survival time)",145%
Cc1ccc(-c2ccc(-c3nc4ccc(F)c(Cl)c4c(C(=O)O)c3C)cc2)cc1 [Example 85],L1210 Leukemia % T/C (median survival time),100 mg/kg i.p.,184%
Cc1c(-c2ccc([S+]([O-])c3ccccc3)cc2)nc2ccc(F)cc2c1C(=O)O (centres unmarked) [Example 124],response vs control in vivo at 360 mg/kg,"Mus musculus, L1210, ip, 720 h, 360 mg/kg i.p., read-out: L1210 Leukemia % T/C (median survival time)",184%
Cc1c(-c2ccc(Sc3ccccc3)cc2)nc2ccc(Cl)cc2c1C(=O)O [Example 21],response vs control in vivo at 200 mg/kg,[6],160%
Cc1c(-c2ccc(Oc3ccc([N+](=O)[O-])cc3)cc2)nc2ccc(F)cc2c1C(=O)O [Example 184],L1210 Leukemia % T/C (median survival time),175 mg/kg i.p.,153%
Cc1ccc(-c2ccc(-c3nc4ccc(F)cc4c(C(=O)O)c3C)cc2)cc1C [Example 129],response vs control in vivo at 100 mg/kg,[5],154%
CCC(C)c1ccc(-c2nc3ccc(F)cc3c(C(=O)O)c2C)cc1 (centres unmarked) [Example 99],response vs control in vivo at 50 mg/kg,[7],101%
Cc1c(-c2ccc(SCc3ccccc3)cc2)nc2ccc(F)cc2c1C(=O)O [Example 116],response vs control in vivo at 75 mg/kg,[8],102%
Cc1c(-c2ccc(-c3ccc(F)cc3)cc2)nc2ccc(Cl)cc2c1C(=O)O [Example 113],L1210 Leukemia % T/C (median survival time),25 mg/kg i.p.,166%
COc1c(-c2ccc(-c3ccc(C(F)(F)F)cc3)cc2)nc2ccc(F)cc2c1C(=O)O [Example 32],response vs control in vivo at 175 mg/kg,"Mus musculus, L1210, ip, 720 h, 175 mg/kg i.p., read-out: L1210 Leukemia % T/C (median survival time)",153%
Cc1cc2c(C(=O)O)c(C)c(-c3ccc(Oc4ccccc4)cc3)nc2cc1Cl [Example 149],response vs control in vivo at 75 mg/kg,[8],107%
Cc1c(-c2ccc(-c3ccc(Cl)c(Cl)c3)cc2)nc2ccc(F)cc2c1C(=O)O [Example 126],response vs control in vivo at 37.5 mg/kg,[6],150%
"Cc1c(-c2ccc(-c3ccccc3)cc2)nc2ccc(F)c(Cl)c2c1C(=O)O [Example 164, Sodium 2-(4-Biphenylyl)-5-chloro-6-fluoro-3-methylquinoline-4-carboxylate]",response vs control in vivo at 22.5 mg/kg,"Mus musculus, L1210, ip, 720 h, read-out: L1210 Leukemia % T/C (median survival time), 22.5 mg/kg i.p.",234%
Cc1c(-c2ccc(Oc3ccccc3)cc2)nc2ccc(Cl)cc2c1C(=O)O [Example 172],response vs control in vivo at 100 mg/kg,[5],151%
Cc1c(-c2ccc(C3CCCCC3)cc2)nc2ccc(Br)cc2c1C(=O)O [Example 135],L1210 Leukemia % T/C (median survival time),400 mg/kg i.p.,160%
Cc1c(-c2ccc(-c3ccccc3F)cc2)nc2ccc(Cl)cc2c1C(=O)O [Example 160],response vs control in vivo at 25 mg/kg,[4],174%
CCN(CC)CCOC(=O)c1c(C)c(-c2ccc(-c3ccccc3F)cc2)nc2ccc(F)cc12 [Example 202],response vs control in vivo at 59 mg/kg,"Mus musculus, L1210, ip, 720 h, 59 mg/kg i.p., read-out: L1210 Leukemia % T/C (median survival time)",164%
